Source: patent publication US12043448B2, “Compositions for containers and other articles and methods of using same” (SWIMC LLC, priority 2012, dated 2024)

System: MCF-7, clone WS8, cells
Assay: MCF-7 cell proliferation assay of estrogenic activity
Type: cell-based, human
Settings: logarithmic value (base 10) of Relative Proliferative Effect in the MCF-7 assay; table gives 'expected or measured' values
Source text: The MCF-7 assay is a useful test for assessing whether a polyhydric phenol compound is appreciably non-estrogenic. The MCF-7 assay uses MCF-7, clone WS8, cells to measure whether and to what extent a substance induces cell proliferation via estrogen receptor (ER)-mediated pathways. The method is described in “Test Method Nomination: MCF-7 Cell Proliferation Assay of Estrogenic Activity” submitted for validation by CertiChem, Inc. to the National Toxicology Program Interagency Center for the Evaluation of Alternative Toxicological Methods (NICEATM) on Jan. 19, 2006 (available online at http://iccvam.niehs.nih.gov/methods/endocrine/endodocs/SubmDoc.pdf).
A brief summary of the method of the aforementioned MCF-7 assay is provided below. MCF-7, clone WS8, cells are maintained at 37° C. in RMPI (or Roswell Park Memorial Institute medium) containing Phenol Red (e.g., GIBCO Catalog Number 11875119) and supplemented with the indicated additives for routine culture. An aliquot of cells maintained at 37° C. are grown for 2 days in phenol-free media containing 5% charcoal stripped fetal bovine serum in a 25 cm^2 tissue culture flask. Using a robotic dispenser such as an epMotion 5070 unit, MCF-7 cells are then seeded at 400 cells per well in 0.2 ml of hormone-free culture medium in Corning 96-well plates. The cells are adapted for 3 days in the hormone-free culture medium prior to adding the chemical to be assayed for estrogenic activity. The media containing the test chemical is replaced daily for 6 days. At the end of the 7-day exposure to the test chemical, the media is removed, the wells are washed once with 0.2 ml of HBSS (Hanks' Balanced Salt Solution), and then assayed to quantify amounts of DNA per well using a micro-plate modification of the Burton diphenylamine (DPA) assay, which is used to calculate the level of cell proliferation.
RPE is the ratio between the EC50 of the test chemical and the EC50 of the control substance 17-beta estradiol times 100, where EC50 is “effective concentration […]” or half-maximum stimulation concentration for cell proliferation measured as total DNA in the MCF-7 assay.

Compound	Log RPE
CC/C(=C(/CC)c1ccc(O)cc1)c1ccc(O)cc1 [diethylstilbestrol, reference compound]	about 2
CC(C)(c1ccc(O)cc1)c1ccc(C(C)(C)c2ccc(O)cc2)cc1 [Structure 10]	less than −4
CC(C)(c1cc(Br)c(O)c(Br)c1)c1cc(Br)c(O)c(Br)c1 [Structure 16]	−3
Oc1ccccc1Cc1ccccc1O [Structure 11]	less than −4
CC(c1ccc(O)cc1)(c1ccc(O)cc1)c1ccc(O)cc1 [Structure 3]	−3
CC(C)(C)c1cc(O)c(C(C)(C)C)cc1O [Structure 12]	less than −4
CC(C(=O)O)(c1ccc(O)cc1)c1ccc(O)cc1 [Structure 5]	less than −4
O=S(=O)(c1ccc(O)cc1)c1ccc(O)cc1 [Bisphenol S, reference compound]	−2
CCCC(c1cc(C(C)(C)C)c(O)cc1C)c1cc(C(C)(C)C)c(O)cc1C [Structure 7]	less than −4
C/C=C(/C(=C/C)c1ccc(O)cc1)c1ccc(O)cc1 [dienestrol, reference compound]	about 2
CC(c1ccccc1)(c1ccc(O)cc1)c1ccc(O)cc1 [Structure 4]	−3
Oc1ccc(Cc2ccc(O)cc2)cc1 [Bisphenol F, reference compound]	−2
C[C@]12CC[C@@H]3c4ccc(O)cc4CC[C@H]3[C@@H]1CC[C@@H]2O [17β-estradiol, reference compound]	2.00
O=c1c(-c2ccc(O)cc2)coc2cc(O)cc(O)c12 [Genistein, reference compound]	−2
